In patent publication US11046691B1 (IDEAYA BIOSCIENCES, INC., priority 2018, dated 2021):

Target: hMAT2A (Homo sapiens (Human), UniProt P31153)
Assay: Phosphate Sensor Fluorescence Assay (MAT2A enzyme inhibition)
Assay type: biochemical
Details: L-methionine 500 uM, ATP 500 uM, class symbols
Method: The ability of the compound of present disclosure to inhibit MAT2A enzyme was determined using the Malachite Green or Phosphate Sensor Fluorescence Assay described below.
B. Phosphate Sensor Fluorescence Assay
MAT2A enzyme is incubated with a test compound in DMSO or DMSO and its substrates (L-methionine and ATP) in a microtiter plate. The enzymatic reaction is stopped by the addition of Working Phosphate Sensor Mixture. The plate is analyzed for fluorescence at 450 nm.
Assay Buffer: 50 mM Tris, pH 7.5/50 mM KCl/10 mM MgCl2/0.01% Brij-35/1 mM DTT/0.1% BGG/40 nM PNP/6 uM 7-MEG
L-methionine: 500 uM before the addition of Working Phosphate Sensor Mixture
ATP: 500 uM before the addition of Working Phosphate Sensor Mixture
Test compounds or DMSO were added to the appropriate well suing D300e digital dispenser. 5 μl/well of Assay Buffer was added to the wells corresponding to the negative control and 5 μl/well of MAT2A was added to all the wells except for those corresponding to the negative control. After incubating the plate at room temperature for 15 minutes, 5 μl/well of the 1 mM L-methionine/1 mM ATP mixture was added to all wells. The plate was centrifuged at 1000 rpm for 1 minute and then incubated at room temperature for 1 hour. 5 μl of the Working Phosphate Sensor Mixture was added to all wells and the plate was centrifuged at 1000 rpm for 1 minute. The plate was read for fluorescence at 450 nm after exciting at 430 nm.
Percent inhibition was calculated in Chemical and Biological Information System (CBIS), (ChemInnovation Software Inc.). Curves were fitted by CBIS as % inhibition vs. log [compound concentration] using a 4-parameter inhibition model. Fit=(A+((B−A)/(1+((C/x)^D)))) Res=(y−fit)

Chain of hMAT2A (P31153 whole entry): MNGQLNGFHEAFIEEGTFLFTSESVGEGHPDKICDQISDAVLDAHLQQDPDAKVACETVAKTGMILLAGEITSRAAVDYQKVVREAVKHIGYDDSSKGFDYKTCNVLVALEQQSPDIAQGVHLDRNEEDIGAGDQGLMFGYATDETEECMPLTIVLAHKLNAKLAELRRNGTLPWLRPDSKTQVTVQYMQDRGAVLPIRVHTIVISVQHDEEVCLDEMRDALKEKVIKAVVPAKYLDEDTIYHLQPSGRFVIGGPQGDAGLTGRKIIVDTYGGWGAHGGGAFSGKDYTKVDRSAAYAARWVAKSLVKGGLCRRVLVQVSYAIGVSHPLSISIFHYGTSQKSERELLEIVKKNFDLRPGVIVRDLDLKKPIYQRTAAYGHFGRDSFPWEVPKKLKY

Row | IC50 [nM] | Compound
1 | < 200 | CC(F)(F)c1ccc2c(NCC3CC3)nc(=O)n(-c3ccccc3Cl)c2c1 [Example 425, 1-(2-chlorophenyl)-4-((cyclopropyl-methyl)amino)-7-(1,1-difluoroethyl)-quinazolin-2(1H)-one]
2 | < 200 | Nc1nc(=O)n(-c2cccnc2)c2cc(C(F)(F)F)ccc12 [Example 327, 4-amino-1-(pyridin-3-yl)-7-(trifluoro-methyl)hydroquinazolin-2-one]
3 | 200 to 500 | CNc1nc(=O)n(-c2cccc(C(F)(F)F)c2)c2cc(Cl)ccc12 [Example 86, 7-chloro-4-(methylamino)-1-[3-(trifluoromethyl)phenyl]hydroquina-zolin-2-one]
4 | < 200 | O=c1nc(NCC(F)F)c2ccc(C(F)(F)F)cc2n1-c1cccnc1 [Example 325, 4-[(2,2-difluoroethyl)amino]-1-(pyridin-3-yl)-7-(trifluoromethyl)hydro-quinazolin-2-one]
5 | < 200 | CNc1nc(=O)n(-c2ccccc2)c2cc(CCl)ccc12 [Example 160, 7-(chloromethyl)-4-(methylamino)-1-phenylhydroquinazolin-2-one]
6 | < 200 | CNc1nc(=O)n(-c2cccnc2)c2cc(Cl)ccc12 [Example 114, 7-chloro-4-(methylamino)-1-(3-pyridyl)-hydroquinazolin-2-one]
7 | < 200 | CNc1nc(=O)n(-c2cnccc2Cl)c2nc(C(F)(F)F)ccc12 [Example 377, 1-(4-chloropyridin-3-yl)-4-(methyl-amino)-7-(trifluoromethyl)pyrido[2,3-d]pyrimidin-2(1H)-one]
8 | < 200 | 1-[2-(difluoromethoxy)(3--pyridyl)]-7- cyclopropyl-4-[(cyclopropylmethyl)- amino]hydroquinazolin-2-one [Example 416]
9 | < 200 | O=c1nc(NC2CCC2)c2ccc(C(F)(F)F)nc2n1-c1ccccc1Cl [Example 320, 1-(2-chlorophenyl)-4-(cyclobutylamino)-7-(trifluoromethyl)pyrido[2,3-d]-pyrimidin-2(1H)-one]
10 | < 200 | O=c1nc(N2CC3CC3C2)c2ccc(Cl)cc2n1-c1ccccc1 (stereo not shown) [Example 222, 4-(3-azabicyclo[3.1.0]hex-3-yl)-7-chloro-1-phenylhydroquinazolin-2-one]
11 | < 200 | CO[C@H]1C[C@H](Nc2nc(=O)n(-c3ccccc3Cl)c3nc(C(F)(F)F)ccc23)C1 [Example 301]
12 | 200 to 500 | CNc1nc(=O)n(-c2ccnc(OC)c2)c2nc(C(F)(F)F)ccc12 [Example 90, 1-(2-methoxypyridin-4-yl)-4-(methyl-amino)-7-(trifluoromethyl)pyrido[2,3-d]-pyrimidin-2(1H)-one]
13 | < 200 | O=c1[nH]c(=O)n(-c2cccc3[nH]ncc23)c2cc(Cl)ccc12 [Example 254, 1-(1H-indazol-4-yl)-7-chloro-1,3-dihydroquinazoline-2,4-dione]
14 | < 200 | Cc1ccccc1-n1c(=O)[nH]c(=O)c2ccc(C(F)(F)F)cc21 [Example 147, 1-(2-methylphenyl)-7-(trifluoromethyl)-1,3-dihydroquinazoline-2,4-dione]
15 | < 200 | C[C@@H](O)CNc1nc(=O)n(-c2ccccc2Cl)c2nc(C(F)(F)F)ccc12 [Example 294, 4-[((2R)-2-hydroxypropyl)amino]-1-(2-chlorophenyl)-7-(trifluoromethyl)-pyrido[2,3-d]pyrimidin-2(1H)-one]
16 | < 200 | CNc1nc(=O)n(-c2ccc(F)c(O)c2)c2cc(Cl)ccc12 [Example 310, 7-chloro-1-(4-fluoro-3-hydroxyphenyl)-4-(methylamino)hydroquinazolin-2-one]
17 | < 200 | [2H]C([2H])([2H])Nc1nc(=O)n(-c2ccccc2)c2nc(C(F)(F)F)ccc12 [Example 366, 4-((methyl-d3)amino)-1-phenyl-7-(trifluoromethyl)pyrido[2,3-d]pyrimidin-2(1H)-one]
18 | < 200 | N#C[C@H]1C[C@@H](Nc2nc(=O)n(-c3ccccc3Cl)c3nc(C(F)(F)F)ccc23)C1 [Example 318, (1s,3s)-3-((1-(2-chlorophenyl)-2-oxo-7-(trifluoromethyl)-1,2-dihydropyrido[2,3-d]pyrimidin-4-yl)amino)cyclobutane-1-carbonitrile]

Row | IC50 [nM] | Compound
19 | < 200 | CCc1ccc2c(NC)nc(=O)n(-c3ccccc3)c2c1 [Example 115, 7-ethyl-4-(methylamino)-1-phenylhydro-quinazolin-2-one]
20 | < 200 | CNc1nc(=O)n(-c2ccccc2)c2cc(C(F)(F)F)cc(F)c12 [Example 420, 5-fluoro-4-(methylamino)-1-phenyl-7-(trifluoromethyl)hydroquinazolin-2-one]
21 | < 200 | O=c1nc(N[C@H]2C[C@H](O)C2)c2ccc(C(F)(F)F)nc2n1-c1ccccc1Cl [Example 334, 1-(2-chlorophenyl)-4-(((1r,3r)-3-hydroxycyc1obutyl)amino)-7-(trifluoro-methyl)pyrido[2,3-d]pyrimidin-2(1H)-one]
22 | < 200 | [2H]C([2H])([2H])Nc1nc(=O)n(-c2ccccc2Cl)c2cc(Cl)ccc12 [Example 347, 7-chloro-1-(2-chlorophenyl)-4-((methyl-d3)amino)quinazolin-2(1H)-one]
23 | < 200 | COc1nc(=O)n(-c2ccccc2Cl)c2cc(C3CC3)ccc12 [Example 423, 1-(2-chlorophenyl)-7-cyclopropyl-4-methoxyhydroquinazolin-2-one]
24 | < 200 | CNc1nc(=O)n(-c2cccc(CC(=O)O)c2)c2cc(Cl)ccc12 [Example 419, 2-(3-(7-chloro-4-(methylamino)-2-oxoquinazolin-1(2H)-yl)phenyl)acetic acid]
25 | < 200 | COc1ccccc1-n1c(=O)nc(N2CC[C@@H](O)C2)c2ccc(Cl)cc21 [Example 151, 4-((3R)-3-hydroxypyrrolidin-1-yl)-7-chloro-1-(2-methoxyphenyl)hydro-quinazolin-2-one]
26 | < 200 | CNc1nc(=O)n(-c2cccc(C#N)c2)c2cc(C(F)(F)F)ccc12 [Example 142, 3[4-(methylamino)-2-oxo-7-(trifluoro-methyl)hydroquinazolinyl]benzene-carbonitrile]
27 | < 200 | Cc1ccc2c(NCC(F)F)nc(=O)n(-c3ccccc3)c2n1 [Example 398, 4-[(2,2-difluoroethyl)amino]-7-methyl-1-phenylpyrido[2,3-d]pyrimidin-2(1H)-one]
28 | < 200 | O=c1[nH]c(=O)n(-c2cccnc2)c2cc(C(F)(F)F)ccc12 [Example 362, 1-(pyridin-3-yl)-7-(trifluoromethyl)-1,3-dihydroquinazoline-2,4-dione]
29 | < 200 | CO[C@H]1CCN(c2nc(=O)n(-c3ccccc3)c3cc(Cl)ccc23)C1 [Example 196, (S)-7-chloro-4-(3-methoxypyrrolidin-1-yl)-1-phenylquinazolin-2(1H)-one]
30 | 200 to 500 | COc1nc(=O)n(-c2ccccc2)c2nc(C)ccc12 [Example 396, 4-methoxy-7-methyl-1-phenylpyrido-[2,3-d]pyrimidin-2(1H)-one]
31 | < 200 | CCCc1ccc2c(NC)nc(=O)n(-c3ccccc3)c2c1 [Example 97, 4-(methylamino)-1-phenyl-7-propylhydroquinazolin-2-one]
32 | < 200 | C[C@H]1CCCN1c1nc(=O)n(-c2ccccc2)c2nc(C(F)(F)F)ccc12 [Example 345, 4-((2S)-2-methylpyrrolidin-1-yl)-1-phenyl-7-(trifluoromethyl)pyrido[2,3-d]-pyrimidin-2(1H)-one]
33 | < 200 | Cc1ccccc1-n1c(=O)nc(N2CC(O)C2)c2ccc(C(F)(F)F)nc21 [Example 165]
34 | < 200 | CNc1nc(=O)n(-c2ccccc2C)c2nc(C(F)(F)F)ccc12 [Example 180, 4-(methylamino)-1-(2-methylphenyl)-7-(trifluoromethyl)pyrido[2,3-d]pyrimidin-2(1H)-one]
35 | 200 to 500 | CCc1nc(=O)n(-c2ccccc2)c2cc(Cl)ccc12 [Example 105, 7-chloro-4-ethyl-1-phenylhydro-quinazolin-2-one]

Same assay, conditions: L-methionine 500 uM, ATP 500 uM, numeric bound

Row | IC50 [nM] | Compound
36 | > 10000 | CNc1nc(=O)n(-c2ccccc2)c2cc(Cl)cc(OC3COC3)c12 [Example 202, 7-chloro-4-(methylamino)-5-oxetan-3-yloxy-1-phenylhydroquinazolin-2-one]
37 | > 10000 | Nc1nc(=O)n(-c2ccc3nccn3c2)c2cc(Cl)ccc12 [Example 252, 4-amino-7-chloro-1-(4-hydroimidazo-[1,2-a]pyridin-6-yl)hydroquinazolin-2-one]
38 | > 10000 | CNc1nc(=O)n(-c2cnccc2O)c2nc(C(F)(F)F)ccc12 [Example 392, 1-(4-hydroxypyridin-3-yl)-4-(methyl-amino)-7-(trifluoromethyl)pyrido[2,3-d]-pyrimidin-2(1H)-one]
39 | > 10000 | O=c1[nH]c(=O)n(-c2ccccc2)c2cc(CO)ccc12 [Example 212, 7-(hydroxymethyl)-1-phenyl-1,3-dihydroquinazoline-2,4-dione]
40 | > 10000 | CNc1nc(=O)n(-c2ccccc2)c2cc(Cl)nnc12 [Example 243, 3-chloro-8-(methylamino)-5-phenyl-5-hydropyrimidino[5,4-c]pyridazin-6-one]
